Several values for one entry are separate records, joined by “and”; a condition that tells them apart may be missing. Identical values can stand only once. Like-named read-outs stand apart in the source and are kept apart here.
What was measured:
Solubility in water = format: physicochemical; settings: 24 °C, room temperature (22-26° C.)
[1] = Viscosity test: temperature-induced rise in viscosity; format: physicochemical; settings: 15% poloxamer 407 gel with 2% API vs without
Procedure: The viscosity normally is measured with a viscometer, in particular a rheometer. A rheometer usually is a laboratory device measuring flow characteristics of a liquid, suspension or slurry in response to applied forces. A common device type is a so called shear rheometer, in which a shear stress is applied to the corresponding material. Devices which can be used to measure the viscosity of the aqueous gel compositions according to the invention are rheometers from Brookfield (AMETEK Brookfield). […]
Note: Maximal Viscosity is Identical for all Formulations (Due to the Test Method)

[2] = Pharmacokinetic study after unilateral transtympanic administration (plasma, inner ear, perilymph, brain); format: in vivo, female Sprague Dawley rats; settings: rat; for concentration at 14 days: 14 days after administration; for ACOU085 plasma concentration / ACOU085 brain concentration: 6% thermo-reversible formulation 1.2 mg/animal unilateral transtympanic
Procedure: Eighteen female Sprague Dawley rats entered a pharmacokinetic study, to determine the distribution of a 6% thermo-reversible ACOU085 formulation at a dose of 1.2 mg/animal after unilateral transtympanic administration in peripheral plasma, inner ear, perilymph, brain and CSF.
4, 24, 48, 96, 168 and 336 h after dosing n=3 rats out of every group were euthanized with carbon dioxide, peripheral and final blood samples and brain were taken and inner ears were dissected to analyze ACOU085 concentrations. Body weight was assessed on the day 1-4, on day 7 and day 14. Animals were checked for any clinical signs associated with toxicity of the test substance.

[3] = 6% thermo-reversible formulation 1.2 mg/animal transtympanic

solubility (Solubility in water) | effect of API on the viscosity-temperature relation of the formulation [1] | concentration at 336 h ([2]; female, Sprague Dawley, other: transtympanic, perilymph, 6% formulation 1.2 mg/animal unilateral transtympanic, Left side, 336 h, animals 1-3, read-out: Uptake of ACOU085 into the perilymph: ACOU085 inner ear concentration) | concentration at 14 days ([2]; female, Sprague Dawley, brain, other: transtympanic, 1.2 mg/animal, read-out: brain concentration (average)) | concentration at 4 h ([2]; female, Sprague Dawley, inner ear, left side, other: transtympanic, 1.2 mg/animal, 6% formulation 1.2 mg/animal unilateral transtympanic, Left side, 4 h, animals 1-3, read-out: ACOU085 inner ear concentration) | concentration at 14 days ([2]; female, Sprague Dawley, plasma, other: transtympanic, 1.2 mg/animal, read-out: plasma concentration (average)) | concentration at 7 days ([2]; female, Sprague Dawley, plasma, other: transtympanic, 1.2 mg/animal, after 7 days) | ACOU085 inner ear concentration ([2]; 6% formulation 1.2 mg/animal unilateral transtympanic, Left side, 4 h, animals 1-3) | maximal average concentration in brain [2, 3] | maximal average concentration in plasma [2, 3] | ACOU085 plasma concentration ([2]; 4 h (printed 4 11), animals 1-3) | ACOU085 brain concentration ([2]; 48 h, animals 1-3) | ACOU085 plasma concentration ([2]; 48 h, animals 1-3) | ACOU085 brain concentration ([2]; 96 h, animals 1-3) | ACOU085 plasma concentration ([2]; 96 h, animals 1-3) | time of peak brain concentration ([2]; after injection) | Uptake of ACOU085 into the perilymph: ACOU085 inner ear concentration ([2]; perilymph, 6% formulation 1.2 mg/animal unilateral transtympanic, Left side, 336 h, animals 1-3) | SMILES | uptake into the brain and into the plasma ([2]; compared with inner ear tissue and perilymph)
< 1000 µg/mL | – | – | – | – | – | – | – | – | – | – | – | – | – | – | – | – | O=C(NCc1cccc(S(F)(F)(F)(F)F)c1)[C@H]1C[C@@H]2CC[C@H]1C2 (racemic) [Compound A, (1SR,2SR,4RS)—N-(3-(pentafluoro-λ6-sulfanyl)benzyl) bicyclo[2.2.1]heptane-2-carboxamide] | –
< 1000 µg/mL | no effect | 4 nM | 8 nM | 55 nM | 4 nM | 26 nM | 82 nmol/L and 93 nmol/L | 82 nmol/L | 45 nmol/L | 9 nnmol/L and 6 nnmol/L and 12 nnmol/L | 38 nnmol/L and 53 nnmol/L and 76 nnmol/L | 12 nnmol/L and 18 nnmol/L and 16 nnmol/L | 94 nnmol/L and 52 nnmol/L and 68 nnmol/L | 48 nnmol/L and 26 nnmol/L and 33 nnmol/L | 96 h | 3 nmol/L and 2 nmol/L | O=C(NCc1cccc(S(F)(F)(F)(F)F)c1)[C@H]1C[C@@H]2CC[C@H]1C2 [ACOU085, (1S,2S,4R)—N-(3-(pentafluorosulfanyl)benzyl) bicyclo[2.2.1]heptane-2-carboxamide] | low in comparison to the inner ear tissue and perilymph

— US20260083669A1, “AQUEOUS GEL COMPOSITION” (Acousia Therapeutics GmbH, priority 2022, published 2026)
